From patent publication US20240269146A1, “USE OF PELABRESIB FOR TREATING ANEMIAS” (Constellation Pharmaceuticals, Inc., priority 2021, published 2024)
“Also recorded” adds a separate entry of the source.

Test: Pelabresib Form A monohydrate administered to human subjects with myelofibrosis, with or without ruxolitinib (FIG. 1)
Type: in vivo
Conditions: median starting dose 125 mg QD, max 225 mg QD, median duration 47 weeks
Experimental: Pelabresib Form A monohydrate was administered to human subjects (with or without ruxolitinib) with a median starting dose of 125 mg QD and a max dose of 225 mg QD for a median duration of 47 weeks. The results of this study are shown in FIG. 1 (Arm 1 being pelabresib Form A and Arm 2 being pelabresib Form A in combination with ruxolitinib).

In the case of `Cc1noc2c1-c1ccccc1C(c1ccc(Cl)cc1)=N[C@H]2CC(N)=O` [pelabresib, 2-((4S)-6-(4-chlorophenyl)-1-methyl-4H-benzo[c]isoxazolo[4,5-e]azepin-4-yl)acetamide], the hemoglobin is reported as “improving hemoglobin” and the “reticulocyte count (number of reticulocytes)” value is reported as “increases the number of reticulocytes; also recorded: effective in increasing reticulocytes”.
